Assays:
[1] = target: T1, ELG3/V5-His (Homo sapiens, UniProt Q9NXB9); test: Elongation of [1-14C]20:5n-3 in microsomes of yeast expressing ELG3/V5-His; type: biochemical; settings: for % conversion 24:5n-3 / % conversion 22:5n-3 / % conversion Total: substrate [1-14C]20:5n-3 7.2 μM; for % conversion 24:5n-3: control 5.0; for % conversion 22:5n-3: control 13.7; for % conversion Total: control 18.7
T1 construct: made in house; host or cells: Saccharomyces cerevisiae (INVSc1), microsomal fraction
T1 sequence (Q9NXB9 1-296): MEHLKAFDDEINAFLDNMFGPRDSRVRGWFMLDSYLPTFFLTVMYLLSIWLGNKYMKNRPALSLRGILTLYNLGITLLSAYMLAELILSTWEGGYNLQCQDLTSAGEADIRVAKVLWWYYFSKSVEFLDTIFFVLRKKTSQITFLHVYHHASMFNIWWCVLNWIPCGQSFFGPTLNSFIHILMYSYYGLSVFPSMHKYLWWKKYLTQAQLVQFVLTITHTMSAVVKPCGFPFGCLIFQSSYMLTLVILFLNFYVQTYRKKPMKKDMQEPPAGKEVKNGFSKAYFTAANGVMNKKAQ
Experimental: A sulphoxide derivative of S-propylbutylethylthiocarbamate (pebulate sulphoxide) was obtained from Zeneca Agrochemicals, UK, and dissolved in ethanol at a concentration of 5 mM.
A 51 culture of Saccharomyces cerevisiae transformed with pTh1017.1 encoding ELG3/V5-His was started with a cell density of approximately 3.2×10^5 cells/ml (O.D.600 0.4) using SC-U medium with 1% raffinose. After 8 h of incubation at 30° C. in an orbital shaker at 270 rpm, galactose was added to a final concentration of 2%. Yeast were incubated for an additional 12 h until they were harvested by centrifugation at 2060×g for 10 minutes at 4° C. and washed with water. The cell pellet was resuspended in ⅓ of its volume in a pH 7.2 isolation buffer (80 mM Hepes-KOH, 10 mM KCl, 320 mM sucrose, 2 mM PMSF and a protease inhibitor cocktail). The cell suspension was poured into a mortar containing liquid N2 and ground with sand using a ceramic pestle. The yeast powder was transferred to a conical test tube, to which ⅔ of the pellet volume of isolation buffer was added. The sand was removed by centrifugation at 228×g for 1 min and the suspension centrifuged at 10,000×g for 20 min to separate cell debris, nuclei and mitochondria. The supernatant was centrifuged at 106,000×g for 1.5 h to obtain the microsomal pellet, which was resuspended in storage buffer (80 mM Hepes-KOH, 10 mM KCl, 320 mM sucrose, 1 mM PMSF and a protease inhibitor cocktail) to a final protein concentration of 20 μg/μl. The protein concentration was measured by the method of Lowry et al. (1951, .J Biol. Chem., 193: 265-275) with bovine serum albumin as standard.
The activity of ELG3/V5-His was determined by measuring the conversion of [1-^14C]20:5n-3 to [1-^14C]22:5n-3 and [1-^14C]24:5n-3. Reactions were started by adding 500 μg of yeast microsomal protein to pre-incubated tubes containing 0.20 μCi of the substrate fatty acid at a final concentration of 7.2 μM in 0.25 ml of 80 mM Hepes-KOH (pH 7.2) with 43 mM MgCl2, 1.0 mM ATP,500 μM NADPH, 10 μM coenzyme A, 100 μM […] (as lithium salt) and pebulate sulphoxide at concentrations that ranged between 1 to 100 μM. The tubes were vortexed vigorously and after 30 min incubation at 37° C. in a shaking water bath, the reactions were stopped by the addition of 2 ml of 10% (w/v) KOH in ethanol. Lipids in the incubation mixture were saponified at 80° C. for 45 min under N2. The samples were then left in ice for 5 min before acidification with 750 μl of concentrated HCl. […] The fatty acid methyl esters were analyzed by HPLC as described in Example 19.
The enzyme activity was expressed in percent conversion of radiolabelled 20:5n-3 into its elongation products. Alternatively, it can be expressed in pmol of the fatty acids produced/mg microsomal protein/min.

[2] = system: rat liver elongase; test: Elongation of [1-14C]20:5n-3 in rat liver microsomes; type: biochemical; settings: for % conversion 24:6n-3: delta-6-desaturation product of 24:5n-3, control 9.1; for % conversion 22:5n-3 / % conversion 24:5n-3 / % conversion Total: substrate [1-14C]20:5n-3; for % conversion 22:5n-3: control 11.6; for % conversion 24:5n-3: control 39.7; for % conversion Total: control 60.4
Experimental: Wistar rats under light halothane (15% in mineral oil) anesthesia were sacrificed by exsanguination during periods of high enzyme activity. Livers were immediately rinsed with cold 0.9% NaCl solution, weighed and minced with scissors. All procedures were performed at 4° C. unless specified-otherwise. Livers were homogenized in a solution (1:3 w/v) containing 0.25 M sucrose, 62 mM potassium phosphate buffer (pH 7.0), 0.15 M KCl, 1.5 mM N-acetylcysteine, 5 mM MgCl2, and 0.1 mM EDTA using 4 strokes of a Potter-Elvehjem tissue homogenizer. The homogenate was centrifuged at 10,400×g for 20 min to pellet mitochondria and cellular debris. The supernatant was filtered through a 3-layer cheesecloth and centrifuged at 105,000×g for 60 min. The microsomal pellet was gently resuspended in the same homogenization solution with a small glass/teflon homogenizer and stored at −80° C. The absence of mitochondrial contamination was enzymatically assessed as described elsewhere (Kilberg, M. S. and Christensen H. N., 1979, Biochemistry, 18: 1525-1530). The protein concentration was measured by the method of Lowry et al (1951, J. Biol. Chem., 193: 265-275) with bovine serum albumin as standard.
Reactions were performed using 500 μg of rat liver microsomal protein with the same concentrations of pebulate sulphoxide, radiolabelled fatty acid, conditions and procedures described in Example 21.
The enzyme activity was expressed in percent conversion of radiolabelled 20:5n-3 into its elongation and final delta-6-desaturation products (i.e., 22:5n-3, 24:5n-3 and 24:6n-3).

[3] = system: 18:3n-3; test: Elongation of [1-14C]18:3n-3 in yeast expressing human elongases (RP-HPLC); settings: for Percent Elongation of 18:3n-3 to 20:3: product 20:3n-3
Text: (§1) For the expression of ELG1, ELG2, ELG3, ELG4, ELG5, ELG6 or ELG7 the yeast were transformed with pTh1009.1, pTh1014.1, pTh1015.1, pTh1021.1, pTh1018.1, pTh1041.1 or pTh1044.1, respectively. For the expression of ELG1/V5-His, ELG2/V5-His, ELG3/V5-His, ELG4/V5-His, ELG5/V5-His, ELG6/V5 -His or ELG7/V5-His the yeast were transformed with pTh1009.2, pTh1014.2, pTh1017.1, pTh1021.2, pTh1019.1, pTh1042.1 or pTh1045.1, respectively. Recombinant yeast cells were selected on SC-U medium.
(§2) Transformed yeast (approximately 3.2×10^6 cells/ml; O.D.600 0.4) were incubated in a 125 ml Erlenmeyer containing 10 ml of SC-U medium with 1% raffinose, 1% tergitol and 25 μM of the lithium salts of either [1-^14C]18:3n-3 (1 μCi), [1-^14C]18:3n-6 (1 μCi), [1-^14C]20:4n-6 (2 μCi), or [1-^14C]20:5n-3 (2 μCi). After 4 h incubation in an orbital incubator at 270 rpm and 30° C., cells reached the log phase and the transgene, expression was induced with galactose 30° C., cells reached the log phase and the transgene expression was induced with galactose (2% final concentration). The yeast were incubated for an additional 19 h and then harvested by centrifugation at 5000×g for 10 minutes at 4° C.
(§3) Cells were washed with Tris-HCl buffer (100 mM, pH 8.0) containing 0.1% BSA and total lipids were extracted as described below. The radioactivity from aliquots of the incubation medium, supernatant and cells was determined by liquid scintillation counting using a LS6500-Scintillation System (Beckman).
(§4) Alternatively, cells were resuspended in 1.5 ml of water and saponified with 2 ml of 10% KOH in ethanol. The total lipid extracts or the free fatty acids from the saponified samples were methylated using boron trifluoride in methanol at 90° C. for 30 min. The resultant methyl esters (FAME) were analyzed as described below.
(§5) Analyses of radiolabelled FAME were carried out on a Hewlett Packard 1090, series II chromatograph equipped with a diode array detector set at 205 nm, a radioisotope detector (model 171, Beckman, CA) with a solid scintillation cartridge (97% efficiency for ^14C-detection) and a reverse phase ODS (C-18) Beckman column (250 mm×4.6 mm i.d.; 5 μm particle size) attached to a pre-column with a μBondapak C-18 (Beckman) insert. FAME were separated isocratically with acetonitrile/water (95.5 v/v) at a flow rate of 1 ml/min and were identified by comparison with authentic standards. Alternatively, the eluted FAME were collected and the solvent evaporated. FAME were re-dissolved in hexane for further analysis by gas chromatography.

[4] = system: 20:4n-6; test: Elongation of [1-14C]20:4n-6 in yeast expressing human elongases (RP-HPLC); settings: for Percent Elongation of 20:4n-6 to 22:4: product 22:4n-6
Text: as §1, §2, §3, §4, §5

[5] = system: 18:3n-6; test: Elongation of [1-14C]18:3n-6 in yeast expressing human elongases (RP-HPLC); settings: untagged elongase, 25 μM substrate; for Percent Elongation of 18:3n-6 to 20:3: product 20:3n-6
Text: as §1, §2, §3, §4, §5

[6] = system: 20:5n-3; test: Elongation of [1-14C]20:5n-3 in yeast expressing human elongases (RP-HPLC); settings: untagged elongase, 25 μM substrate
Text: as §1, §2, §3
Alternatively, cells were resuspended in 1.5 ml of water and saponified with 2 ml of 10% KOH in ethanol. The total lipid extracts or the free fatty acids from the saponified samples were methylated using boron trifluoride in methanol at 90° C. for 30 min. The resultant methyl esters (FAME) were analyzed as described below. […]

[7] = untagged elongase, 25 μM substrate

CCCCN(CC)C(=O)[S+]([O-])CCC (centres unmarked) [Pebulate sulphoxide, sulphoxide derivative of S-propylbutylethylthiocarbamate]
% conversion 24:5n-3 ([1]; 1 μM): 5.6%
% conversion 22:5n-3 ([1]; 1 μM): 13.8%
% conversion Total ([1]; 1 μM): 19.4%
% conversion 24:5n-3 ([1]; 10 μM): 6.6%
% conversion 22:5n-3 ([1]; 10 μM): 12.8%
% conversion Total ([1]; 10 μM): 19.4%
% conversion 24:5n-3 ([1]; 50 μM): 4.6%
% conversion 22:5n-3 ([1]; 50 μM): 11.3%
% conversion Total ([1]; 50 μM): 15.9%
reduction of elongation (ELG3/V5-His activity) ([1]; 100 μM, 20:5n-3 as substrate): approximately 27%
% conversion 24:5n-3 ([1]; 100 μM): 4.3%
% conversion 22:5n-3 ([1]; 100 μM): 9.4%
% conversion Total ([1]; 100 μM): 13.7%
% conversion 24:6n-3 ([2]; 1 μM): 9.6%
% conversion 22:5n-3 ([2]; 1 μM): 12.5%
% conversion 24:5n-3 ([2]; 1 μM): 47.5%
% conversion Total ([2]; 1 μM): 69.3%
% conversion 24:6n-3 ([2]; 10 μM): 10.9%
% conversion 22:5n-3 ([2]; 10 μM): 12.5%
% conversion 24:5n-3 ([2]; 10 μM): 47.2%
% conversion Total ([2]; 10 μM): 70.7%
% conversion 24:6n-3 ([2]; 50 μM): 7.9%
% conversion 22:5n-3 ([2]; 50 μM): 12.2%
% conversion 24:5n-3 ([2]; 50 μM): 48.7%
% conversion Total ([2]; 50 μM): 68.8%
reduction of elongation (rat liver elongase activity) ([2]; 100 μM, 20:5n-3 as substrate): approximately 30%
% conversion 24:6n-3 ([2]; 100 μM): 4.5%
% conversion 22:5n-3 ([2]; 100 μM): 10.2%
% conversion 24:5n-3 ([2]; 100 μM): 28.0%
% conversion Total ([2]; 100 μM): 42.7%

B1: ELG4: human PUFA elongase (SEQ ID NO: 5) expressed in yeast from plasmid pTh1021.1 (protein)
chain: MAFSDLTSRTVHLYDNWIKDADPRVEDWLLMSSPLPQTILLGFYVYFVTSLGPKLMENRKPFELKKAMITYNFFIVLFSVYMCYEFVMSGWGIGYSFRCDIVDYSRSPTALRMARTCWLYYFSKFIELLDTIFFVLRKKNSQVTFLHVFHHTIMPWTWWFGVKFAAGGLGTFHALLNTAVHVVMYSYYGLSALGPAYQKYLWWKKYLTSLQLVQFVIVAIHISQFFFMEDCKYQFPVFACIIMSYSFMFLLLFLHFWYRAYTKGQRLPKTVKNGTCKNKDN
modifications: human
Percent Elongation of 18:3n-3 to 20:3 [3, 7]: 10%
Percent Elongation of 18:3n-3 to 22:3 ([3]; untagged elongase, 25 μM substrate, product 22:3n-3): 4%
Percent Elongation of 20:4n-6 to 22:4 ([4]; V5-His tagged elongase): 12%
Percent Elongation of 20:4n-6 to 22:4 [4, 7]: 24%
Percent Elongation of 20:4n-6 to 24:4 ([4]; untagged elongase, 25 μM substrate, product 24:4n-6): 2%
Percent Elongation of 18:3n-6 to 20:3 [5]: 20%
Percent Elongation of 18:3n-6 to 22:3 ([5]; product 22:3n-6): 4%
Percent Elongation of 20:5n-3 to 22:5 ([6]; product 22:5n-3): 15%
Percent Elongation of 20:5n-3 to 24:5 ([6]; product 24:5n-3): 3%

B2: ELG7: human PUFA elongase (SEQ ID NO: 12) expressed in yeast from plasmid pTh1044.1 (protein)
chain: MGLLDSEPGSVLNVVSTALNDTVEFYRWTWSIADKRVENWPLMQSPWPTLSISTLYLLFVWLGPKWMKDREPFQMRLVLIIYNFGMVLLNLFIFRELFMGSYNAGYSYICQSVDYSNNVHEVRIAAALWWYFVSKGVEYLDTVFFILRKKNNQVSFLHVYHHCTMFTLWWIGIKWVAGGQAFFGAQLNSFIHVIMYSYYGLTAFGPWIQKYLWWKRYLTMLQLIQFHVTIGHTALSLYTDCPFPKWMHWALIAYAISFIFLFLNFYIRTYKEPKKPKAGKTAMNGISANGVSKSEKQLMIENGKKQKNGKAKGD
modifications: human
Percent Elongation of 18:3n-3 to 20:3 ([3]; V5-His tagged elongase): 4%
Percent Elongation of 18:3n-3 to 20:3 [3, 7]: 5%

B3: ELG6: human PUFA elongase (SEQ ID NO: 9) expressed in yeast from plasmid pTh1041.1 (protein)
chain: MVTAMNVSHEVNQLFQPYNFELSKDMRPFFEEYWATSFPIALIYLVLIAVGQNYMKERKGFNLQGPLILWSFCLAIFSILGAVRMWGIMGTVLLTGGLKQTVCFINFIDNSTVKFWSWVFLLSKVIELGDTAFIILRKRPLIFIHWYHHSTVLVYTSFGYKNKVPAGGWFVTMNFGVHAIMYTYYTLKAANVKPPKMLPMLITSLQILQMFVGAIVSILTYIWRQDQGCHTTMEHLFWSFILYMTYFILFAHFFCQTYIRPKVKAKTKSQ
modifications: human
Percent Elongation of 18:3n-3 to 20:3 ([3]; V5-His tagged elongase): 3%
Percent Elongation of 18:3n-3 to 20:3 [3, 7]: 3%
Percent Elongation of 18:3n-6 to 20:3 [5]: 2%

From patent publication US7297523B2, “Human elongase genes and uses thereof” (Xenon Pharmaceuticals Inc., priority 2000, dated 2007)
